According to patent EP1921115B1, “Use of 3-hydroxy-cyclohex-2-enone azo based dyes in optical layers” (Clariant Finance (BVI) Limited, priority 2006, dated 2008):

Assays:
Format in all cases: physicochemical
[1] = Thermal decomposition: decomposition point (DP); conditions: sealed aluminum pan, 25 to 400°C, heating rate 10°C/min, nitrogen flow, single measurement
Experimental: For the determination of DP and HR, the compound is incorporated into a sealed aluminum pan. Analysis conditions are as following: Temperature range from 25 to 400°C, heating rate 10°C/min, nitrogen flow of 50 ml/min. Values are determined by single measurement.

[2] = UV-vis spectra (λ max and ε); conditions: dissolved in CH2Cl2, DMSO or in tfp
Experimental: For UV-vis spectra, λ max and ε values of a compound are determined by using an UV-vis spectrophotometer, the compound was dissolved in CH2Cl2, DMSO or in tfp. The values are obtained by balancing the measurements performed on compound solutions at three different concentrations.

[3] = Solubility in 2,2,3,3 tetrafluoropropanol; conditions: in 2,2,3,3 tetrafluoropropanol at 25 °C
Description: The solubilities were differentiated into three groups: A Good solubility (> 20 g / L) B Medium solubility (>= 10 and <= 20 g / L) C Poor solubility (<10 g / L)

SMILES	DP [1] [°C]	ε (at λ max) ([2]; Table A, azo ligands) [L/g/cm]	λ max [2] [nm]	Solubility [3]	ε (at λ max) ([2]; Table B, metal complexes) [L/g/cm]
CCOC(=O)C1C(O)=C(N=Nc2ccc(OC)cc2[N+](=O)[O-])C(=O)CC1(C)C (centres unmarked) [compound of formula (6)]	273	56	448	B (Medium solubility (>= 10 and <= 20 g / L))	–
CCOC(=O)C1C(O)=C(N=Nc2ccc(C)cc2[N+](=O)[O-])C(=O)CC1(C)C (centres unmarked) [compound of formula (1)]	282	63	427	A (Good solubility (> 20 g / L))	–
CCOC(=O)C1C([O][Cu][O]C2=C(N=Nc3cc(OC)c(S(N)(=O)=O)cc3OC)C(=O)CC(C)(C)C2C(=O)OCC)=C(N=Nc2cc(OC)c(S(N)(=O)=O)cc2OC)C(=O)CC1(C)C (centres unmarked) [compound of formula (20)]	314	–	441	B (Medium solubility (>= 10 and <= 20 g / L))	42
CCOC(=O)C1C(O)=C(N=Nc2ccccc2[N+](=O)[O-])C(=O)CC1(C)C (centres unmarked) [compound of formula (4)]	238	52	424	B (Medium solubility (>= 10 and <= 20 g / L))	–
CCOC(=O)C1C(O)=C(N=Nc2ccc([N+](=O)[O-])cc2Br)C(=O)CC1(C)C (centres unmarked) [compound of formula (9)]	285	72	400	A (Good solubility (> 20 g / L))	–
CCOC(=O)C1C(O)=C(N=Nc2ccc(Cl)cc2[N+](=O)[O-])C(=O)CC1(C)C (centres unmarked) [compound of formula (3)]	274	52	421	A (Good solubility (> 20 g / L))	–
CCOC(=O)C1C([O][Cu][O]C2=C(N=Nc3ccc([N+](=O)[O-])cc3OC)C(=O)CC(C)(C)C2C(=O)OCC)=C(N=Nc2ccc([N+](=O)[O-])cc2OC)C(=O)CC1(C)C (centres unmarked) [compound of formula (18)]	276	–	431	C (Poor solubility (<10 g / L))	50
CCOC(=O)C1C([O][Ni][O]C2=C(N=Nc3ccc([N+](=O)[O-])cc3OC)C(=O)CC(C)(C)C2C(=O)OCC)=C(N=Nc2ccc([N+](=O)[O-])cc2OC)C(=O)CC1(C)C (centres unmarked) [compound of formula (19)]	278	–	442	A (Good solubility (> 20 g / L))	67
CCOC(=O)C1C(O)=C(N=Nc2c(Br)cc([N+](=O)[O-])cc2C#N)C(=O)CC1(C)C (centres unmarked) [compound of formula (8)]	226	55	396	B (Medium solubility (>= 10 and <= 20 g / L))	–
COc1ccc(N=NC2=C(O)C(C#N)C(C)(C)CC2=O)c([N+](=O)[O-])c1 (centres unmarked) [compound of formula (15)]	154	50	458	C (Poor solubility (<10 g / L))	–
CCOC(=O)C1C(O)=C(N=Nc2ccc(S(C)(=O)=O)cc2[N+](=O)[O-])C(=O)CC1(C)C (centres unmarked) [compound of formula (5)]	200	19	384	A (Good solubility (> 20 g / L))	–
CC1(C)CC(=O)C(N=Nc2cc([N+](=O)[O-])ccc2O)=C(O)C1C#N (centres unmarked) [compound of formula (16)]	249	17	423	C (Poor solubility (<10 g / L))	–

Further lines, results first:

DP [1] [°C]	ε (at λ max) ([2]; Table A, azo ligands) [L/g/cm]	λ max [2] [nm]	Solubility [3]	ε (at λ max) ([2]; Table B, metal complexes) [L/g/cm]	SMILES
222	42	437	A (Good solubility (> 20 g / L))	–	CC1(C)CC(=O)C(N=Nc2ccc(Cl)cc2[N+](=O)[O-])=C(O)C1C#N (centres unmarked) [compound of formula (14)]
279	25	438	A (Good solubility (> 20 g / L))	–	CCOC(=O)C1C(O)=C(N=Nc2cc(OC)c(S(N)(=O)=O)cc2OC)C(=O)CC1(C)C (centres unmarked) [compound of formula (12)]
276	32	399	A (Good solubility (> 20 g / L))	–	CCOC(=O)C1C(O)=C(N=Nc2ccc(C(F)(F)F)cc2[N+](=O)[O-])C(=O)CC1(C)C (centres unmarked) [compound of formula (7)]
248	55	413	A (Good solubility (> 20 g / L))	–	CCOC(=O)C1C(O)=C(N=Nc2c(C)cc(C)cc2C)C(=O)CC1(C)C (centres unmarked) [compound of formula (10)]
270	52	442	C (Poor solubility (<10 g / L))	–	Cc1ccc(N=NC2=C(O)C(C#N)C(C)(C)CC2=O)c([N+](=O)[O-])c1 (centres unmarked) [compound of formula (13)]
157	29	326	A (Good solubility (> 20 g / L))	–	CCOC(=O)C1C(O)=C(N=Nc2c(F)c(F)c(F)c(F)c2F)C(=O)CC1(C)C (centres unmarked) [compound of formula (17)]
253	52	411	A (Good solubility (> 20 g / L))	–	CCOC(=O)C1C(O)=C(N=Nc2cc([N+](=O)[O-])ccc2O)C(=O)CC1(C)C (centres unmarked) [compound of formula (2)]
288	44	432	A (Good solubility (> 20 g / L))	–	CCOC(=O)C1C(O)=C(N=Nc2ccc([N+](=O)[O-])cc2OC)C(=O)CC1(C)C (centres unmarked) [compound of formula (11)]
